Source: ChEMBL document CHEMBL1201862, “PubChem BioAssay data set” (2004)
Active and inactive are the calls of the source.

What was measured:
Aminopeptidase N = molecular target: T1, Aminopeptidase N (Plasmodium falciparum FcB1/Columbia, UniProt O96935); assay: P. falciparum M1AAP inhibitors, biochemical, fluorogenic H-Leu-NHMec substrate, 1536-well (AID 1445); design: species or system Plasmodium falciparum 3D7, 3D7
T1 sequence (O96935 whole entry): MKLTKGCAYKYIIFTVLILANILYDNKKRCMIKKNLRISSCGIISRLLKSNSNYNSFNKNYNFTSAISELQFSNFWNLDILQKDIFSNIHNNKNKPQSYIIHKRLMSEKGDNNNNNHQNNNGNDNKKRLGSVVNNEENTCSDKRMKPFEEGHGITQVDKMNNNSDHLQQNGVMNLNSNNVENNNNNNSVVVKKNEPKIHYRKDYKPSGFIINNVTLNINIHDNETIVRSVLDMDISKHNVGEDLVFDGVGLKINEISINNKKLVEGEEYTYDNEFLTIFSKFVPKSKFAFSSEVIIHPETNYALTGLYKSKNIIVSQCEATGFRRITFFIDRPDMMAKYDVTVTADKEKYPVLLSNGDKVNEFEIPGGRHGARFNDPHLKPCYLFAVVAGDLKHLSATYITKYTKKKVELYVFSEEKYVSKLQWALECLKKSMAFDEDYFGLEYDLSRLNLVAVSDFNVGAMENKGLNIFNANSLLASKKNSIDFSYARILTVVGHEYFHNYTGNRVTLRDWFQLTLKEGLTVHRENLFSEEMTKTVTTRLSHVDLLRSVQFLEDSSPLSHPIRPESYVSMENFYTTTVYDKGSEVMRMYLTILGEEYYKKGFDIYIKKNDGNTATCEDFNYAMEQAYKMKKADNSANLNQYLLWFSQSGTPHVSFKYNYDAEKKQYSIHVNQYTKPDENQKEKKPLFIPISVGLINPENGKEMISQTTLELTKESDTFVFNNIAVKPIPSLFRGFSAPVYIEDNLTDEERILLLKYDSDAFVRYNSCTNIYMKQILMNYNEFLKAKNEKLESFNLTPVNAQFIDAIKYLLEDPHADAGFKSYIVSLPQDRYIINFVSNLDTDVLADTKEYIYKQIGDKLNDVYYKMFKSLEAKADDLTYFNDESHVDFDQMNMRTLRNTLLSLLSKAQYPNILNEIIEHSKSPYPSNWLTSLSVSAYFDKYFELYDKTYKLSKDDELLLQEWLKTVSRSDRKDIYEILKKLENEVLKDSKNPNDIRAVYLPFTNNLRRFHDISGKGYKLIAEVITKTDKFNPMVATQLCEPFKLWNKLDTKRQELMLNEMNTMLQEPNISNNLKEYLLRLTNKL

[1] = molecular target: T2, Polyadenylate-binding protein 1 (Homo sapiens, UniProt P11940); assay: PABP1 MLLE–PAM2 binding inhibitor potency, dose response, biochemical, fluorescence polarization, FITC-PAM2 peptide (AID 602259); assay type: functional; conditions: read-out: IC50_Mean
[2] = molecular target: T3, Zinc finger protein mex-5 (Caenorhabditis elegans, UniProt Q9XUB2); assay: MEX-5/TCR-2 RNA interaction inhibitors, dose response, biochemical, C. elegans, fluorescence polarization (AID 1960)
T3 sequence (Q9XUB2 whole entry): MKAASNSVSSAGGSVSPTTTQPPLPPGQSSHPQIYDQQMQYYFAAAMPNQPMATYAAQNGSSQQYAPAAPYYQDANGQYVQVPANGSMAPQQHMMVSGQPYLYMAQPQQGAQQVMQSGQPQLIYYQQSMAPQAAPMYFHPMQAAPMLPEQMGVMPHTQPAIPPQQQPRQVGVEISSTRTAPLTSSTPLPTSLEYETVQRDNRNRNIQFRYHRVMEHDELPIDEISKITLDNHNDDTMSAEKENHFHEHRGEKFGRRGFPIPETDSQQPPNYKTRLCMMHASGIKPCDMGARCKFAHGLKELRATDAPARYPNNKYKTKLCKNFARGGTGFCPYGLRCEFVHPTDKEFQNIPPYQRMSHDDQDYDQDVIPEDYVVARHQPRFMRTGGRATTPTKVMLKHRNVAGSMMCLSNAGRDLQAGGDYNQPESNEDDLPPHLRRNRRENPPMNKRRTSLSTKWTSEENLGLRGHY

[3] = molecular target: Intestinal-type alkaline phosphatase (Mus musculus, UniProt P24822); assay: PubChem AID 488785; assay type: functional
[4] = molecular target: T4, RNA-binding protein pos-1 (Caenorhabditis elegans, UniProt G5EF15); assay: inhibitors of POS-1/mex-3 RNA binding, dose response, biochemical, fluorescence polarization (AID 1964);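 note: purified POS-1 fused to maltose binding protein made in E. coli; potency of compounds blocking POS-1 binding to fluorescent RNA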
T4 sequence (G5EF15 whole entry): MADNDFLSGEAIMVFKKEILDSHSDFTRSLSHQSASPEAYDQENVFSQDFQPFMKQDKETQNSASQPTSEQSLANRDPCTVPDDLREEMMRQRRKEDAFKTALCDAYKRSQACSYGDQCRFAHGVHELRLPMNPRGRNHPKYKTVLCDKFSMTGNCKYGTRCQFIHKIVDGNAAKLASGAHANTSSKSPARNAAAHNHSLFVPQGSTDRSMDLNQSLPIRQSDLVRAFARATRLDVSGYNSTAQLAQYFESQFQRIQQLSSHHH

[5] = molecular target: T5, Alkaline phosphatase, tissue-nonspecific isozyme (Homo sapiens, UniProt P05186); assay: TNAP enzyme inhibition by screening hits, dose response, selectivity assay for mouse IAP inhibitor project, biochemical, human TNAP, uHTS hits (AID 488906); assay type: functional
T5 sequence (P05186 whole entry): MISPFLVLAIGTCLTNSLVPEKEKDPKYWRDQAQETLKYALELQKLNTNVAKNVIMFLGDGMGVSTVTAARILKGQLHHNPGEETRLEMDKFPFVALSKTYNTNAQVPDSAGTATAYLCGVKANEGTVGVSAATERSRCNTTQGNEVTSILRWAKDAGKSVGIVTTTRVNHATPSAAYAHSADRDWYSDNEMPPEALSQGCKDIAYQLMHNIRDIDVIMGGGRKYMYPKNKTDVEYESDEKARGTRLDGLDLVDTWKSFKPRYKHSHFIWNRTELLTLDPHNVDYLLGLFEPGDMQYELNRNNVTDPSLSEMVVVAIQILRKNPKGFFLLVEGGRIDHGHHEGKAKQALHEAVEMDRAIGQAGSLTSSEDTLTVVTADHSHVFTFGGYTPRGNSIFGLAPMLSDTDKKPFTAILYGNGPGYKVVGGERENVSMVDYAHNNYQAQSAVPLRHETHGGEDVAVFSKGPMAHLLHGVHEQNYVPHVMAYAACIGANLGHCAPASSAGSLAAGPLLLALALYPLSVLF

[6] = molecular target: Intestinal-type alkaline phosphatase (Homo sapiens, UniProt P09923); assay: inhibition of human intestinal alkaline phosphatase – biochemical, dose response (AID 488876); assay type: functional
Aspartyl aminopeptidase = Aspartyl aminopeptidase (Plasmodium falciparum 3D7, UniProt Q8I2J3); assay: Counterscreen for inhibitors of M1 and M17 aminopeptidases: QFRET-based biochemical high throughput dose response assay for inhibitors of the Plasmodium falciparum M18 Aspartyl Aminopeptidase (PFM18AAP). [Related PubChem assays: 1619 (Screening assay (M17LAP inhibitors).), 1445 (Screening assay (M1AAP inhibitors).)]
Procathepsin L = Procathepsin L (Homo sapiens, UniProt P07711); assay: cathepsin L inhibitors, dose response, counter-screen for M1/M17 aminopeptidase inhibitor project, biochemical, QFRET, 1536-well (AID 2214)
[7] = molecular target: T2, Polyadenylate-binding protein 1; assay: PABP1 MLLE–PAM2 interaction inhibitors, dose response, miRNA deadenylation inhibitor project, biochemical, fluorescence polarization, Cy5-PAM2 peptide, secondary (AID 602260); assay type: functional; conditions: read-out: IC50_Mean
[8] = molecular target: T6, Tyrosine-protein phosphatase non-receptor type 22 (Homo sapiens, UniProt Q9Y2R2); assay type: functional
T6 sequence (Q9Y2R2 whole entry): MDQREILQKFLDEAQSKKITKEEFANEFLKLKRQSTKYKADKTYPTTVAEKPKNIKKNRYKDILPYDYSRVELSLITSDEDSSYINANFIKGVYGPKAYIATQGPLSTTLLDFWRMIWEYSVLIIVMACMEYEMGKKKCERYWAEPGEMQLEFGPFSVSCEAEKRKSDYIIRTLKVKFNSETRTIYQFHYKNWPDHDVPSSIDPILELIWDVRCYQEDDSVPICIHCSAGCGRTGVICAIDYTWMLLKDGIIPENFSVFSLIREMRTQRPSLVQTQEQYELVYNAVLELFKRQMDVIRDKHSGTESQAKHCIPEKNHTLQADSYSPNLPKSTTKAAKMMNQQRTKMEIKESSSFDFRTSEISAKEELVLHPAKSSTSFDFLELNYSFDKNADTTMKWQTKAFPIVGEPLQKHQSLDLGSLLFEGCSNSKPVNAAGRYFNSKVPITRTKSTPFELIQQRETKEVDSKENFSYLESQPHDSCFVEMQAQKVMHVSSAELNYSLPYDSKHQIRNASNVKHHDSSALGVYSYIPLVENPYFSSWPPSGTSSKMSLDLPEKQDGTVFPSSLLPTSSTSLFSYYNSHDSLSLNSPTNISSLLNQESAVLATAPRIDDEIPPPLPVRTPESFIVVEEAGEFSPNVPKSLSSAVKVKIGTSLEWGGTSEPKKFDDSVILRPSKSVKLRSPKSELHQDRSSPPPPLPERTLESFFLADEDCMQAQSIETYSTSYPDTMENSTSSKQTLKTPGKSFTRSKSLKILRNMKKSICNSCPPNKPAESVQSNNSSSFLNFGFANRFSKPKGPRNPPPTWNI

[9] = molecular target: T6, Tyrosine-protein phosphatase non-receptor type 22; assay type: functional; remark: listed apart in the source
[10] = molecular target: T7, Tyrosine-protein phosphatase non-receptor type 7 (Homo sapiens, UniProt P35236); assay type: functional
T7 sequence (P35236 whole entry): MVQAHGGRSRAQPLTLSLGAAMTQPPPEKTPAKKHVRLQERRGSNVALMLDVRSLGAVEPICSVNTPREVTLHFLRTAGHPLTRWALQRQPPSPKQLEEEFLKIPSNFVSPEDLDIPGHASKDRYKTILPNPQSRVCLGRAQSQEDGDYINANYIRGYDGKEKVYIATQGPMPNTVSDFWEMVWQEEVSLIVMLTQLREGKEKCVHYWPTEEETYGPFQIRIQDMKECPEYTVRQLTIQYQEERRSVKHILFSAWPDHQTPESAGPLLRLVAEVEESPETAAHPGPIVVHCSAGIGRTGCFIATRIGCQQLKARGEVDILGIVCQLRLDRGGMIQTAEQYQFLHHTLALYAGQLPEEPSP

T2 sequence (P11940 whole entry): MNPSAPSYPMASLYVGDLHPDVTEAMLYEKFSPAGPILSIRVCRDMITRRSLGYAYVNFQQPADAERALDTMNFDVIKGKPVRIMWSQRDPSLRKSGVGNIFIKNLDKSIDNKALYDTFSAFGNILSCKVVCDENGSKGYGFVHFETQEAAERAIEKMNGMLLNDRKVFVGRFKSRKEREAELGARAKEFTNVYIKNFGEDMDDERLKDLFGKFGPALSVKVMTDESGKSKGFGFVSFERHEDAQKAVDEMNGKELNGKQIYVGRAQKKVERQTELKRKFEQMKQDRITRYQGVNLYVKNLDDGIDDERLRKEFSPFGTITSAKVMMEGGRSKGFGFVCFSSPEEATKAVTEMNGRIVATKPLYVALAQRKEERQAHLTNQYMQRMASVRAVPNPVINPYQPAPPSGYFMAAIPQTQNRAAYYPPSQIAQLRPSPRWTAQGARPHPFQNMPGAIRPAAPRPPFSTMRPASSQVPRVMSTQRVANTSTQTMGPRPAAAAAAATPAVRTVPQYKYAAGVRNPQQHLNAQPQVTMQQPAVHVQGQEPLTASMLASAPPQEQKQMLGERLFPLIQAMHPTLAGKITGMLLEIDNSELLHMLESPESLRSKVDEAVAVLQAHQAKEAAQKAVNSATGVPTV
Chain of Aspartyl aminopeptidase (Q8I2J3 whole entry): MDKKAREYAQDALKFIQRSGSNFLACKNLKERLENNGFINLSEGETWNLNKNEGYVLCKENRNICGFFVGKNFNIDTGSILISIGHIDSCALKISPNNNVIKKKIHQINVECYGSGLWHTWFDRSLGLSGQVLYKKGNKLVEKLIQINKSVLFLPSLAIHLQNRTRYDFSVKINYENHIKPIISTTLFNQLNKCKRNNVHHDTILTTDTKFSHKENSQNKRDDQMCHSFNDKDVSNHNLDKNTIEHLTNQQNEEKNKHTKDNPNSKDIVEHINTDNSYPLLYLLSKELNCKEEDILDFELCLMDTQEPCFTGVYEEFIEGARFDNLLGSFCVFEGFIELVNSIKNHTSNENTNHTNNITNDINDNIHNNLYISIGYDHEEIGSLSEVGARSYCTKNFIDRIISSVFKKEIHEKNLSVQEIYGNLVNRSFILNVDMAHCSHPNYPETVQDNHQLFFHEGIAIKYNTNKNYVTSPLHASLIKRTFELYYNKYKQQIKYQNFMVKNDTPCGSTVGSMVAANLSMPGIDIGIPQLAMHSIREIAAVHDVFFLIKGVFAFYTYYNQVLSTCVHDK
Chain of Procathepsin L (P07711 whole entry): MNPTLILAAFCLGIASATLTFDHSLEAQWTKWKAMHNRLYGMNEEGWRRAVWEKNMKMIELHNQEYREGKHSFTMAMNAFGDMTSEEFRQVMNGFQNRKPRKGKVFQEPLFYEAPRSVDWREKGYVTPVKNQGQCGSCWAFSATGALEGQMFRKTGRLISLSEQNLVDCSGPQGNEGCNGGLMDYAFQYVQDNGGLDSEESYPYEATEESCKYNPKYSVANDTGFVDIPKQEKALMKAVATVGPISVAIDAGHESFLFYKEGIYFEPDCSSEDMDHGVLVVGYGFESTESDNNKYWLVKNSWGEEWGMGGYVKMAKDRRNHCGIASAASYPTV
Chain of Intestinal-type alkaline phosphatase (Mus musculus, UniProt P24822) (P24822 whole entry, the tested form may be a part): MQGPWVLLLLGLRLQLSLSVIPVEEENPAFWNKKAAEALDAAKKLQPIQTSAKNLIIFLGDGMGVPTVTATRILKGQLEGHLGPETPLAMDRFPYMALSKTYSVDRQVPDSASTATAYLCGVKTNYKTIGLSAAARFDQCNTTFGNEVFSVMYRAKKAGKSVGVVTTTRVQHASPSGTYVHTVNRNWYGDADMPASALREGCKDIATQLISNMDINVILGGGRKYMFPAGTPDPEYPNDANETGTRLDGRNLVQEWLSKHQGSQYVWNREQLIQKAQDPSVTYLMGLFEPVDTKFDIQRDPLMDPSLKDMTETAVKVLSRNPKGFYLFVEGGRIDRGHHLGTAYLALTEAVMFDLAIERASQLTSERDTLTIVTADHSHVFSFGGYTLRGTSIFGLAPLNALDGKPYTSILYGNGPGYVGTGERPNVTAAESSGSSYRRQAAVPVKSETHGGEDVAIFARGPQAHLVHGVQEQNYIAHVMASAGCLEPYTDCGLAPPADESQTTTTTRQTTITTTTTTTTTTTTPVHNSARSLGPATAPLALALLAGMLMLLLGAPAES
Chain of Intestinal-type alkaline phosphatase (Homo sapiens, UniProt P09923) (P09923 whole entry): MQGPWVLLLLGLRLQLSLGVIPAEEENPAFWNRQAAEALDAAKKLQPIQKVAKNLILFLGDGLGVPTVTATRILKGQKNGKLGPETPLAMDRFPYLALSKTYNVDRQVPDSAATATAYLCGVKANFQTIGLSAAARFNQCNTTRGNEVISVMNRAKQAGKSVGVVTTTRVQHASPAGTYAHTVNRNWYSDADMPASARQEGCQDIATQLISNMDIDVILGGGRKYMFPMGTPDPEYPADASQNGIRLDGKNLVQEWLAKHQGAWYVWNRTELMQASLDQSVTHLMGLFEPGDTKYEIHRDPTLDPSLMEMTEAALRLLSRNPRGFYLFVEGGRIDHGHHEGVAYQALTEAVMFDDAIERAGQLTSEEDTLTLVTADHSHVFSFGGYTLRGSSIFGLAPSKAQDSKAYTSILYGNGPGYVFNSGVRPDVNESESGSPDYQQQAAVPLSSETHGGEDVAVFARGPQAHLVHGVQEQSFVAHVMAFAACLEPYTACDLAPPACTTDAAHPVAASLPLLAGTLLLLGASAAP

CCN1C(=O)/C(=C2\SC(=S)N(NC(=O)c3ccccc3O)C2=O)c2ccccc21
IC50 (Aminopeptidase N): 9.43 µM (active) | IC50 [1]: > 66 µM (inactive) | EC50 [2]: 5.31 µM (active) | IC50 [3]: 53.5 µM (active) | EC50 [4]: 7.47 µM (active) | IC50 [5]: > 100 µM (inactive) | IC50 [6]: > 100 µM (inactive) | IC50 (Aspartyl aminopeptidase): 25 µM (not active) | IC50 (Procathepsin L): > 59.6 µM (not active) | IC50 [7]: > 66 µM (inactive)

CSCC[C@H](NC(=O)Nc1cccc(C(F)(F)F)c1)C(=O)O
IC50 [8]: > 79.4 µM (inactive) | IC50 [9]: > 79.4 µM (inactive) | IC50 [10]: > 79.4 µM (inactive)
